The results in this text go back to publication PMC11487390, “Design and Synthesis of 1,3-Diarylpyrazoles and Investigation of Their Cytotoxicity and Antiparasitic Profile” (International Journal of Molecular Sciences, 2024).

A short description of data set [1]: Cytotoxicity assay, MRC-5SV2 cells, resazurin, 3 days. The class given is cell-based. Particulars: human, MRC-5 cells, highest concentration 64 µM. The procedure: The series of final products (13–69) was investigated in vitro on the human fetal lung fibroblast cell line MRC-5 (Table 1) to assess cytotoxicity toward normal (i.e., non-malignant) human cells. […] As explained earlier, these are important pathogens for humans or cattle (T. b. brucei) and a persistent need for new therapeutics exists for these parasites. As a part of the antiparasitic tests, cytotoxicity against primary mouse macrophages (PMMs) was also evaluated. These murine cells serve as host cells for parasites in the L. infantum assay. Therefore, the murine macrophage assay not only offers additional cytotoxicological insight but is also essential to interpreting the readout of the L. infantum assay.
(§1) The MRC-5SV2 human lung fibroblast cell line was cultured in MEM + Earle’s salts-medium, supplemented with 2 mM L-glutamine, 16.5 mM NaHCO3, and 5% inactivated fetal calf serum. For evaluating the antileishmanial activity, the L. infantum MHOM/MA(BE)/67 strain was used. This strain was maintained in a Golden hamster (Mesocricetus auratus). Amastigotes were collected from the spleen of an infected donor hamster using differential centrifugation. Primary peritoneal mouse macrophages were used as host cells and were collected 2 days after peritoneal stimulation with a 2% potato starch suspension. For the intracellular T. cruzi assays, the Tulahuen CL2 strain was used that expresses β-galactosidase. The strain was maintained in MRC-5SV2 cells in MEM medium. The T. b. brucei Squib 427 strain or T. b. rhodesiense STIB-900 strain was used for screening against the extracellular African trypanosomes. The strains were maintained in Hirumi’s Modified Iscove’s medium-9 (HMI-9), supplemented with 10% inactivated fetal calf serum. All cultures and assays were performed at 37 °C with 5% CO2.
(§2) Compound stock solutions were prepared in 100% DMSO at 20 mM. The compounds were serially pre-diluted by robotic plate production (4-fold) in DMSO followed by a further (intermediate) dilution in demineralized water to assure a final in-test DMSO concentration of <1%. Identical test plates containing 10 µL of the different concentrations of each compound were produced for the different assays. For the cytotoxicity assays, 5 concentrations per compound were tested (64–16–4–1–0.25 µM). For the parasitic assays, 10 concentrations per compound were tested, ranging from 64 µM to 0.2 nM.
Assays were performed in sterile 96-well microtiter plates, each well containing 10 µL of the watery compound dilutions together with 190 µL of MRC-5SV2 inoculum (1.5 × 10^5 cells/mL). Cell growth was compared to untreated control wells (100% cell growth) and medium-control wells (0% cell growth). After 3 days incubation, MRC-5 viability was assessed fluorimetrically after addition of 50 μL resazurin per well (final concentration of 10 µg mL^−1). After 4 h at 37 °C, fluorescence was measured (λex 550 nm, λem 590 nm). The results were expressed as % reduction in cell growth/viability compared to positive (100% growth–0% inhibition) and negative (0% growth–100% inhibition) control wells from which EC50 values (50% effective concentrations) were derived using an excel macro that calculates the interpolation of the concentrations corresponding to the flanking points, just above and just below 50% inhibition.
In general terms: The colour change of resazurin is a common sign of viable cells or microbes.

Data set [2] deals with L. infantum MHOM/MA(BE)/67 strain. As to the kind of experiment: L. infantum intracellular amastigote assay in PMM (Giemsa, 5 days). Conditions: Leishmania infantum, 120 h, amastigotes in PMM, 5 days; read-out: L. inf. (EC50). The class given is cell-based, Leishmania infantum. As to the method: as §1, §2
Primary peritoneal mouse macrophages (PMMs) were prepared in RPMI-1640 medium, supplemented with 2 mM L-glutamine, 16.5 mM NaHCO3, and 5% inactivated fetal calf serum. The macrophages are infected after 48 h with spleen-derived L. infantum amastigotes (3 × 10^4 PMM + 4.5 × 10^5 parasites/well). The compounds were added after 2 h of infection. After 5 days incubation, parasite burdens (mean number of amastigotes/macrophage) were assessed microscopically after staining with a 10% Giemsa solution and EC50 values were calculated.

Data set [3] relates to T. b. brucei Squib 427 strain. Description: T. b. brucei growth assay (resazurin, 3 days). The class given is cell-based, Trypanosoma brucei brucei. Particulars: Trypanosoma brucei, 72 h, 3 days; read-out: T. b. bruc. (EC50). As to the method: as §1, §2
(§3) Parasite suspensions (1.5 × 10^4 T. b. brucei/well or 4 × 10^3 T. b. rhodesiense/well) in HMI-9 medium were exposed in a total volume of 200 µL to 10 µL of the compound dilutions Parasite growth was assessed fluorimetrically after 3 days of incubation by the addition of 50 µL resazurin per well. After 6 h (T. b. rhodesiense) or 24 h (T. b. brucei) at 37 °C, fluorescence was measured (λex 550 nm, λem 590 nm), from which viability and EC50 values could be determined.

In data set [4] the test system is T. b. rhodesiense STIB-900 strain. Description: T. b. rhodesiense growth assay (resazurin, 3 days). The class given is cell-based, Trypanosoma brucei rhodesiense. Conditions: Trypanosoma brucei, RHODESIENSE, 72 h, 3 days; read-out: T. b. rhod. (EC50). The procedure:
as §1, §2, §3

The subject of data set [5] is Trypanosoma cruzi Tulahuen CL2 strain. As to the kind of experiment: Intracellular T. cruzi assay in MRC-5 cells (β-galactosidase/CPRG, 7 days). The class given is cell-based. Conditions: Trypanosoma cruzi, TULAHUEN, MRC5, 168 h, intracellular in MRC-5 cells. As to the method:
as §1, §2
MRC-5 cells were infected in 96-well plates using a harvested T. cruzi inoculum (4 × 10^3 MRC-5 cells/well + 4 × 10^4 parasites/well) and exposed to 10 µL of the compound dilutions (200 µL/well total volume). Parasite growth determined after 7 days of incubation and compared to untreated infected controls following the addition of the substrate CPRG (chlorophenolred ß-D-galactopyranoside): 50 µL/well of a stock solution containing 15.2 mg CPRG + 250 µL Nonidet in 100 mL PBS. The absorbance was measured spectrophotometrically at 540 nm after 4 h incubation at 37 °C and EC50 values were calculated.

Setting [6] is: MRC-5SV2 human lung fibroblast cells.

Each structure is given as a SMILES string. Structures can show the parent of a compound that is named as a salt.

Turning to `c1ccc(CNCc2cn(-c3ccccc3)nc2-c2ccc3c(c2)OCCO3)cc1` [Compound 15, N-benzyl-1-(3-(2,3-dihydrobenzo[b][1,4]dioxin-6-yl)-1-phenyl-1H-pyrazol-4-yl)methanamine hydrochloride], in data set [1] (setting [6]), the EC50 – broadly, the concentration giving half of the maximal effect – at 3 days is 5.42 µM.

Regarding `Fc1ccc(CNCc2cn(-c3ccccc3)nc2-c2ccc3c(c2)OCCO3)cc1` [Compound 16, 1-(3-(2,3-dihydrobenzo[b][1,4]dioxin-6-yl)-1-phenyl-1H-pyrazol-4-yl)-N-(4-fluorobenzyl)methanamine hydrochloride], a half-maximal effect in data set [1] (setting [6]) (EC50 at 3 days) was put at 6.65 µM.

As for `c1ccc(CCNCc2cn(-c3ccccc3)nc2-c2ccc3c(c2)OCCO3)cc1` [Compound 17, N-((3-(2,3-dihydrobenzo[b][1,4]dioxin-6-yl)-1-phenyl-1H-pyrazol-4-yl)methyl)-2-phenylethan-1-amine hydrochloride], in data set [1] (setting [6]), a half-maximal response (EC50 at 3 days) required 0.56 µM.

For the compound `c1ccc(-n2cc(CNCCc3cccnc3)c(-c3ccc4c(c3)OCCO4)n2)cc1` [Compound 20, N-((3-(2,3-dihydrobenzo[b][1,4]dioxin-6-yl)-1-phenyl-1H-pyrazol-4-yl)methyl)-2-(pyridin-3-yl)ethan-1-amine hydrochloride], the EC50 at 3 days in data set [1] (setting [6]) came out at 8.95 µM.

`c1ccc(-n2cc(CN3CCCC3)c(-c3ccc4c(c3)OCCO4)n2)cc1` [Compound 23, 3-(2,3-dihydrobenzo[b][1,4]dioxin-6-yl)-1-phenyl-4-(pyrrolidin-1-ylmethyl)-1H-pyrazole oxalate] had an EC50 at 3 days in data set [1] (setting [6]) of 18.2 µM.

The compound `CN1CCN(Cc2cn(-c3ccccc3)nc2-c2ccc3c(c2)OCCO3)CC1` [Compound 24, 1-((3-(2,3-dihydrobenzo[b][1,4]dioxin-6-yl)-1-phenyl-1H-pyrazol-4-yl)methyl)-4-methylpiperazine] showed an EC50 at 3 days in data set [1] (setting [6]) of 18.2 µM.

Consider `CN1CCN(CCNCc2cn(-c3ccccc3)nc2-c2ccc3c(c2)OCCO3)CC1` [Compound 27, N-((3-(2,3-dihydrobenzo[b][1,4]dioxin-6-yl)-1-phenyl-1H-pyrazol-4-yl)methyl)-2-(4-methylpiperazin-1-yl)ethan-1-amine trihydrochloride], for which, in data set [1] (setting [6]), it took 6.94 µM to reach a half-maximal effect (EC50 at 3 days).

Compound `O=C(Nc1ccccc1)c1cn(-c2ccccc2)nc1-c1ccc2c(c1)OCCO2` [Compound 30, 3-(2,3-dihydrobenzo[b][1,4]dioxin-6-yl)-N,1-diphenyl-1H-pyrazole-4-carboxamide] yielded an EC50 at 3 days in data set [1] (setting [6]) of 9.19 µM.

For the compound `O=C(NCCc1ccccc1)c1cn(-c2ccccc2)nc1-c1ccc2c(c1)OCCO2` [Compound 34, 3-(2,3-dihydrobenzo[b][1,4]dioxin-6-yl)-N-phenethyl-1-phenyl-1H-pyrazole-4-carboxamide], the EC50 was > 64 µM in data set [2], > 64 µM in data set [3], 4.74 µM in data set [4] and > 64 µM in data set [5]. Further, the EC50 at 3 days in data set [1] (setting [6]) stood at 1.54 µM.

As for `O=C(NCCN1CCCC1)c1cn(-c2ccccc2)nc1-c1ccc2c(c1)OCCO2` [Compound 42, 3-(2,3-dihydrobenzo[b][1,4]dioxin-6-yl)-1-phenyl-N-(2-(pyrrolidin-1-yl)ethyl)-1H-pyrazole-4-carboxamide oxalate], the EC50 came out at 27.3 µM in data set [2], 7.15 µM in data set [3], 6.43 µM in data set [4] and 21.7 µM in data set [5]. This compound registered an EC50 at 3 days in data set [1] (setting [6]) of 28 µM.

Take `CN1CCN(CCNC(=O)c2cn(-c3ccccc3)nc2-c2ccc3c(c2)OCCO3)CC1` [Compound 43, 3-(2,3-dihydrobenzo[b][1,4]dioxin-6-yl)-N-(2-(4-methylpiperazin-1-yl)ethyl)-1-phenyl-1H-pyrazole-4-carboxamide]: in data set [1] (setting [6]), a half-maximal effect (EC50 at 3 days) was put at 19 µM.

Consider `Fc1ccc(Cc2cn(-c3ccccc3)nc2-c2ccc3c(c2)OCCO3)cc1` [Compound 51, 3-(2,3-dihydrobenzo[b][1,4]dioxin-6-yl)-4-(4-fluorobenzyl)-1-phenyl-1H-pyrazole], for which the EC50 at 3 days in data set [1] (setting [6]) was > 64 µM.

Compound `Fc1ccc(CNCc2cn(-c3ccccc3)nc2-c2ccc3c(c2)OCO3)cc1` [Compound 55, 1-(3-(benzo[d] [1,3]dioxol-5-yl)-1-phenyl-1H-pyrazol-4-yl)-N-(4-fluorobenzyl)methanamine hydrochloride] showed an EC50 at 3 days in data set [1] (setting [6]) of 1 µM.

With `Fc1ccc(CCNCc2cn(-c3ccccc3)nc2-c2ccc3c(c2)OCO3)cc1` [Compound 56, N-((3-(benzo[d] [1,3]dioxol-5-yl)-1-phenyl-1H-pyrazol-4-yl)methyl)-2-(4-fluorophenyl)ethan-1-amine hydrochloride], the EC50 at 3 days in data set [1] was found to be 6.65 µM.

The compound `c1ccc(-n2cc(CNCCc3ccncc3)c(-c3ccc4c(c3)OCO4)n2)cc1` [Compound 57, N-((3-(benzo[d] [1,3]dioxol-5-yl)-1-phenyl-1H-pyrazol-4-yl)methyl)-2-(pyridin-4-yl)ethan-1-amine hydrochloride] returned a concentration for a half-maximal effect (EC50) at 3 days in data set [1] (setting [6]) of 4 µM.

Consider `c1ccc(-n2cc(CNCCc3cccnc3)c(-c3ccc4c(c3)OCO4)n2)cc1` [Compound 58, N-((3-(benzo[d] [1,3]dioxol-5-yl)-1-phenyl-1H-pyrazol-4-yl)methyl)-2-(pyridin-3-yl)ethan-1-amine hydrochloride], for which the EC50 at 3 days in data set [1] (setting [6]) is 19.4 µM.

In data set [1] (setting [6]), `c1ccc(-n2cc(CNCCN3CCOCC3)c(-c3ccc4c(c3)OCO4)n2)cc1` [Compound 61, N-((3-(benzo[d] [1,3]dioxol-5-yl)-1-phenyl-1H-pyrazol-4-yl)methyl)-2-morpholinoethan-1-amine dihydrochloride] showed an EC50 at 3 days of 17.1 µM.

Take `COc1ccc(-c2nn(-c3ccccc3)cc2CNCCc2ccncc2)cc1` [Compound 62, N-((3-(4-methoxyphenyl)-1-phenyl-1H-pyrazol-4-yl)methyl)-2-(pyridin-4-yl)ethan-1-amine hydrochloride]: the EC50 at 3 days in data set [1] (setting [6]) came out at 9.66 µM.

`COc1ccc(-c2nn(-c3ccccc3)cc2CNCCc2cccnc2)cc1` [Compound 63, N-((3-(4-methoxyphenyl)-1-phenyl-1H-pyrazol-4-yl)methyl)-2-(pyridin-3-yl)ethan-1-amine hydrochloride] showed an EC50 at 3 days in data set [1] (setting [6]) of 16.4 µM.

Take `COc1ccc(-c2nn(-c3ccccc3)cc2CNCCc2ccc(F)cc2)cc1OC` [Compound 67, N-((3-(3,4-dimethoxyphenyl)-1-phenyl-1H-pyrazol-4-yl)methyl)-2-(4-fluorophenyl)ethan-1-amine hydrochloride]: the EC50 at 3 days in data set [1] (setting [6]) was determined as 1.22 µM.
